Experimental data reported in ChEMBL document CHEMBL5604062, “ASAP - ZIKV NS2B-NS3 protease fluorescence dose response” (2024).
Values joined by “and” are separate entries in the source; they are usually repeats but may differ in a detail not shown here. Equal entries are not always repeated. Residues, ends and D or L forms follow the SMILES beside them. *: point of attachment. pNA = O=[N+]([O-])c1ccc(N*)cc1

Target: Nonstructural protein 3 (Zika virus, UniProt A0A024AXB9)
Experiment: Functional biochemical assay to identify treatments for viral infectious disease that targets Zika NS2B-NS3 protease. Utilizing a direct enzyme activity measurement method, reading the fluorescence intensity is used to characterize the relative potency of inhibitors as IC50.
Set-up: species or system PRVABC59

Sequence of Nonstructural protein 3 (A0A024AXB9 whole entry): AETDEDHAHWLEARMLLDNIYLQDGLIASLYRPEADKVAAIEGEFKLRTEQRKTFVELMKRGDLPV

Structure (SMILES) | IC50
COCCO[C@]1(C)C(=O)Nc2cc(F)cc(C(=O)Nc3ccc4c(c3)CNC4)c21 | 3.16 µM
O=C(O)c1cc(Cl)ccc1S(=O)(=O)NC1CCN(S(=O)(=O)c2ccc(I)cc2)CC1 | > 99.5 µM
O=C(O)c1cc2cc(-c3cc(Cl)cc4c3O[C@H](CO)C4)ccc2[nH]1 | > 25 µM
C[C@H]1CC[C@@](Cc2nc3ccccc3[nH]2)(C(=O)Nc2cccc(CN)c2)CC1 | > 99.5 µM
Nc1nc(S(=O)(=O)c2ccccc2)c(Cl)s1 | > 99.5 µM
O=C(Nc1cc(Cl)cc(C(=O)NC[C@@]23CC[C@H](CNC2)C3)c1)OCc1ccccc1 | > 99.5 µM
CNc1ncc(C(F)(F)F)cc1-c1ccc2[nH]c(C(=O)O)cc2c1 | > 99.5 µM
COCCCNC(=O)[C@H](Nc1ccc2c(c1)CNC2)c1cc(Cl)cc(C2CC2)c1 | 0.088 µM and 0.071 µM
CCc1ccc(-c2cn(CC)c(=O)c(N3CC[C@@H](CO)C3)n2)s1 | > 99.5 µM
Cc1cc(NS(=O)(=O)c2ccc(Cl)cc2C(=O)O)nn1Cc1ccccc1 | > 99.5 µM
CCOC1CC(S(=O)(=O)N[C@H](C(=O)Nc2cccc(CN)c2)c2ccc(OCc3ccccc3)cc2)C1 (stereo partly drawn) | > 99.5 µM
N#Cc1c[nH]c2ccc(C(=O)Nc3ccc4c(c3)CNC4)cc12 | 0.494 µM
O=C(O)c1cc(Cl)ccc1S(=O)(=O)NC1CCN(Cc2ccccn2)CC1 | > 99.5 µM
O=C(O)c1cc(Cl)ccc1S(=O)(=O)Nc1ccc(N2CCCS2(=O)=O)cc1 | > 99.5 µM
COc1cc(Cl)cc(C(=O)O)c1NS(=O)(=O)c1ccc(Oc2ccccc2Cl)cc1 | 43.6 µM
NCc1cccc(NC(=O)[C@@H](NC(=O)OCc2ccccc2)c2ccc(C(F)(F)F)cc2)c1 | 79.2 µM
O=C(Nc1ccc2c(c1)CNC2)c1cc(Br)cc2[nH]c([C@H]3CCOC3)nc12 | 0.265 µM
CC[C@@H](NCc1c[nH]c2ccccc12)c1cccnc1 | > 99.5 µM
Cc1c(C(=O)Nc2cc(-c3cccnc3)ccn2)cc(C(C)C)n1C | > 25 µM
Cc1[nH]c2ccc(Cl)cc2c1Cc1ccc(-c2nnn[nH]2)cc1 | > 99.5 µM
CSCC[C@H](N)C(=O)N1CCC[C@H]1C(=O)Nc1ccc([N+](=O)[O-])cc1 (H-Met-Pro-pNA) | > 99.5 µM
Cc1c(C(=O)Nc2cc(C(=O)N(C)[C@H]3C[C@H](O)C3)ccn2)cc(C2CC2)n1C | > 25 µM
NCc1cccc(NC(=O)[C@@H](NC(=O)OCc2ccccc2)c2ccc(-c3ccc(N)nc3)cc2)c1 | 73.2 µM
O=C(NCC(F)F)[C@H](Nc1ccc2c(c1)CNC2)c1cc(Cl)cc(C2CC2)c1 | 0.024 µM and 0.023 µM and 0.062 µM and 0.015 µM and 0.017 µM and 0.065 µM
Cc1c(C(=O)Nc2cc(CCCN)ccn2)cc(-c2ccccc2)n1C | > 25 µM
O=C(O)c1cc(Cl)ccc1S(=O)(=O)N[C@H]1CC[C@@H](Oc2ccccc2)CC1 | > 99.5 µM

Structure (SMILES) | IC50
C[C@@H](Cc1c[nH]c2ccccc12)N1CC[C@H](c2c[nH]c3ccccc23)C1 | > 99.5 µM
O=C(Nc1ccc2c(c1)C[C@H](O)C2)c1cc(Cl)cc2[nH]ncc12 | > 99.5 µM
N=C(N)NCCc1ccc(NC(=O)C(=O)/C=C/c2ccc(N)cc2)cc1 | 36.7 µM
O=C1Cc2c(cccc2C(=O)N[C@H]2CC[C@@H](n3ccnn3)CC2)N1 | > 25 µM
O=C1OCc2ccc(NC(=O)c3cc(Cl)cc4[nH]ncc34)cc21 | 32.3 µM
CCn1c(=O)c(N2C[C@H]3C[C@H]2CS(=O)(=O)C3)nc2ccccc21 | > 99.5 µM
CCc1cc(C(=O)Nc2cccc(-c3nnn[nH]3)c2)nn1-c1ccccc1 | > 99.5 µM
c1ccc2c([C@H]3CCN(C[C@H]4CCOC4)C3)c[nH]c2c1 | > 99.5 µM
O=C(O)Cn1ncc2cc(-c3cc(Cl)cc(NC(=O)OCc4ccccc4)c3)ccc21 | 45.2 µM
Cc1c(C(=O)Nc2cc(C(=O)N3Cc4cn[nH]c4C3)ccn2)cc(C2CC2)n1C | > 25 µM
COC(=O)c1cc(Cl)ccc1NS(=O)(=O)c1ccc(Oc2ccccc2Cl)nc1 | > 99.5 µM
O=C1OCc2ccc(NC(=O)c3cccc4c3CNC4)cc21 | > 25 µM
O=C(Nc1ccc2c(c1)CNC2)c1cccc2[nH]cnc12 | 2.81 µM
Cn1nc(C(F)(F)F)cc1C(=O)Nc1cc(-c2cccnc2)ccn1 | > 25 µM
O=C(Nc1cc(Cl)cc(-c2ccc3[nH]c(C(=O)O)cc3c2)c1)OCc1ccccc1 | 7.58 µM
CCn1cc(-c2ccccc2C(=O)OC)nc(N2CC[C@@H](CO)C2)c1=O | > 99.5 µM
CC(C)c1cnc(COc2ccc(S(=O)(=O)Nc3ccc(Cl)cc3C(=O)O)cc2)o1 | > 99.5 µM
COc1cn(-c2cccc(C(F)(F)F)c2)nc1C(=O)Nc1cccc(CN)c1 | > 99.5 µM
c1ccc2sc(C3CCN(Cc4c[nH]c5ccccc45)CC3)nc2c1 | 9.89 µM
C[C@H]1CCN1C(=O)Cn1ccnc(N2CC[C@H](CO)C2)c1=O | > 99.5 µM
CCCN1C(=O)[C@](C#N)(Nc2ccc3c(c2)CNC3)c2ccccc21 | 24 µM
NCc1cccc(NC(=O)[C@@]23C[C@@H](NC(=O)OCc4ccccc4)C[C@@H]2C3)c1 | > 99.5 µM
N#Cc1cccc(-c2nc3c(C(=O)Nc4ccc5c(c4)CNC5)cc(F)cc3[nH]2)c1 | 33 nM (2×) and 13 nM
N#Cc1ccc2[nH]cc(Cc3ccc(-c4nnn[nH]4)cc3)c2c1 | > 99.5 µM
CC(C)(C)OC(=O)N1C[C@@H](O)[C@H](c2c[nH]c3ccccc23)C1 | > 99.5 µM
c1cncc(CN2CC[C@H](NCc3c[nH]c4ccccc34)C2)c1 | > 99.5 µM

Structure (SMILES) | IC50
NCCc1cccc(NC(=O)c2cc(Cl)cc(NC(=O)OCc3ccccc3)c2)c1 | 4.1 µM and 3.91 µM
Cc1c(C(=O)Nc2cc(C(=O)N3CC[C@H]3CO)ccn2)cc(C2CC2)n1C | > 25 µM
O=C(Nc1ccc2c(c1)CNC2)c1ccccc1-n1cccc1 | 25.1 µM
CCCCCn1cc(C(=O)Nc2cccc(CN)c2)c2ccccc21 | 70.4 µM
C[C@H]1CNC[C@H](C(=O)Nc2cccc(CN)c2)C1 | > 99.5 µM
NCc1cccc(NC(=O)[C@H]2CCc3nnc(-c4ccc(F)cc4)n3C2)c1 | > 99.5 µM
CNC(=O)c1cccc(C(=O)Nc2ccc3c(c2)CNC3)c1 | 0.87 µM
NCc1cccc(NC(=O)[C@H](NC(=O)OCc2ccccc2)c2cccc(OCc3ncccn3)c2)c1 | > 99.5 µM
Cc1c(C(=O)Nc2cc(CCCN)ccn2)cc(C2CC2)n1C | 39.9 µM
NCCCc1ccnc(NC(=O)c2cc(C3CC3)[nH]n2)c1 | > 25 µM
C[C@]1(OCCCO)C(=O)Nc2cc(F)cc(C(=O)Nc3ccc4c(c3)CNC4)c21 | 0.768 µM
O=C(Nc1ccc(C2CCNCC2)cc1)c1cc(Cl)cc2[nH]ncc12 | 9.21 µM
CCn1nc(-c2ccccc2)cc1NS(=O)(=O)c1ccc(Cl)cc1C(=O)O | 29.6 µM
NCc1ccc(O)c(NC(=O)c2cc(Cl)cc(NC(=O)OCc3ccccc3)c2)c1 | 18.1 µM
O=C(Nc1cc(Cl)cc(C(=O)Nc2cccc(C3CCNCC3)c2)c1)OCc1ccccc1 | 13.2 µM and 12.5 µM
CCOc1cccc(-c2ccc(S(=O)(=O)Nc3cc(F)c(Cl)cc3C(=O)O)cc2)c1 | 8.18 µM
CCC(=O)N1CCc2ccc(NS(=O)(=O)c3ccc(Cl)cc3C(=O)O)cc21 | > 99.5 µM
Cc1ncc(-c2ccc([C@@H](NC(=O)OCc3ccccc3)C(=O)Nc3cccc(CN)c3)cc2)s1 | 27.2 µM
O=C(Nc1ccccc1)OCc1ccccc1 [BENZYL PHENYLCARBAMATE] | > 100 µM
O=C(Nc1ccc2c(c1)CNC2)C1CCCCC1 | > 99.5 µM
O=C1Cc2c(cccc2C(=O)N[C@H]2CCc3cnccc32)N1 | > 25 µM
c1nc(C2CCN(Cc3n[nH]c4c3CCC4)CC2)cs1 | > 99.5 µM
O=C(Nc1cc(Cl)cc(C(=O)Nc2cccc(-c3cn[nH]n3)c2)c1)OCc1ccccc1 | > 99.5 µM
CC(C)NC(=O)[C@H](Nc1cccc(-c2nn[nH]n2)c1)c1cc(Cl)cc(NC(=O)OCc2ccccc2)c1 | 60.9 µM
Cn1cc(-c2cccc([C@@H](NC(=O)OCc3ccccc3)C(=O)Nc3cccc(CN)c3)c2)ccc1=O | 73.9 µM
NCc1cccc(NC(=O)[C@@H]2Cc3ccc(OCc4ccccc4)cc3CN2C(=O)OCc2ccccc2)c1 | 21.7 µM

Structure (SMILES) | IC50
NC12CCC(CNC(=O)c3cc(Cl)cc(NC(=O)OCc4ccccc4)c3)(CC1)OC2 | 33.1 µM
CCn1cc(C(=O)O)nc(N2CC[C@@H](CO)C2)c1=O | > 99.5 µM
CN1[C@@H]2CCC[C@H]1C[C@@H](NC(=O)C1CCN(c3ccc(C=O)cc3)CC1)C2 | > 99.9 µM
O=C(Nc1cc(Cl)cc(-c2cn(C3CCCC3)nc2C(=O)O)c1)OCc1ccccc1 | 95.2 µM
CCc1[nH]c2ccccc2c1CN1CCC(c2cscn2)CC1 | 21 µM
CN(C)[C@@H]1C[C@H](C(=O)Nc2cccc(CN)c2)CN(C(=O)OCc2ccccc2)C1 | > 99.5 µM
CCS(=O)(=O)c1ccc(Cl)cc1C(=O)Nc1ccc2c(c1)CNC2 | 2.52 µM
COc1cc(Cc2c(-c3ccc(F)cc3)noc2C)nc(N2CCNCC2)n1 | 70.4 µM
O=C(O)c1cc(Cl)cc(NS(=O)(=O)c2ccc(Oc3ccccc3Cl)cc2)c1 | > 99.5 µM
NCc1cccc(NC(=O)C2CCNCC2)c1 | > 99.5 µM
O=C(Nc1cc(Cl)cc(C(=O)NC[C@H]2CNC3(CC3)CO2)c1)OCc1ccccc1 | > 99.5 µM
O=Cc1ccc(N2CCC(C(=O)NCc3cccc(-c4ccccc4)c3)CC2)cc1 | > 99.9 µM
COc1ccc(CN(C)C)cc1NC(=O)[C@@H](NC(=O)OCc1ccccc1)c1ccc(OCc2ccccc2)cc1 | > 99.5 µM
COC(=O)c1cc(Cl)cc([C@@H]2CN(Cc3ccccc3)C[C@H]2c2cccc(CN)c2)c1 | 47.5 µM
NCc1cccc(NC(=O)[C@H](NC(=O)OCc2ccccc2)c2cccc(-c3ccc4c(c3)CC(=O)N4)c2)c1 | 8.83 µM
NCc1cn(CCNC(=O)c2cc(Cl)cc(NC(=O)OCc3ccccc3)c2)nn1 | > 99.5 µM
CC1CCN(CC[C@H]2CCCN2C(=O)Nc2ccc3c(c2)CNC3)CC1 | > 25 µM
CC(C)Oc1ccccc1C(=O)N[C@H](C(=O)Nc1cccc(CN)c1)c1ccc(OCc2ccccc2)cc1 | 34.4 µM
O=C(Nc1cc([C@H]2CCOC2)ccn1)c1cc(Cl)cc2[nH]ncc12 | > 25 µM
NCc1cccc(NC(=O)c2cc(Cl)cc(Cl)c2OCc2ccccc2)c1 | > 99.5 µM
Cc1c(C(=O)Nc2cccc(C3CCOCC3)c2)cc(C2CC2)n1C | > 25 µM
FC(F)(F)c1nnc(COc2cncnc2)s1 | > 99.5 µM
COCCNC(=O)[C@H](Nc1cccc([C@H]2CCOC2)c1)c1cc(F)cc2[nH]ccc12 | > 25 µM
Cc1c(C(=O)Nc2cc(-c3cccnc3)ccn2)cc(-c2ccccc2)n1C | > 25 µM
CC(C)Oc1ccc(S(=O)(=O)Nc2ccc(Cl)cc2C(=O)O)cc1 | > 99.5 µM
